Measured values published in patent publication US20080167314A1, “Condensed Imidazole Compound And Use Thereof” (priority 2004, published 2008).

**Q.** Which melting point does the source give for `O=C(Nc1cc(-c2c(-c3ccc(F)cc3)nc3cccnn23)ccn1)c1ccc(Cl)nc1` [Example 40-2, 6-chloro-N-{4-[2-(4-fluorophenyl)imidazo[1,2-b]pyridazin-3-yl]pyridin-2-yl}nicotinamide] here?
**A.** 247 to 248 °C

**Q.** For `Cc1cccc(-c2nc3cccnn3c2-c2ccnc(NC(=O)N3CCCCC3)c2)c1` [Example 31, N-{4-[2-(3-Methylphenyl)imidazo[1,2-b]pyridazin-3-yl]pyridin-2-yl}piperidine-1-carboxamide], which melting point is on record?
**A.** 173 to 175 °C

**Q.** With `Cc1cc(-c2nc3cccnn3c2-c2ccnc(NC(=O)N3CCC(O)CC3)c2)ccc1F.Cl` as the compound, how does the melting point read?
**A.** 156 to 157 °C

**Q.** Which melting point does the source give for `Cc1cc(-c2nc3c([S+](C)[O-])cc(Cl)nn3c2-c2ccnc(N)c2)ccc1F` (stereo not shown) [Example 57-2, 4-[6-chloro-2-(4-fluoro-3-methylphenyl)-8-(methylsulfinyl)imidazo[1,2-b]pyridazin-3-yl]-2-pyridylamine] here?
**A.** 216 to 217 °C

**Q.** With `Cc1cc(-c2nc3cccnn3c2-c2ccnc(NC(=O)NC3CCOCC3)c2)ccc1F` [Example 51-15, N-{4-[2-(4-fluoro-3-methylphenyl)imidazo[1,2-b]pyridazin-3-yl]pyridin-2-yl}-N′-(tetrahydro-2H-pyran-4-yl)urea] as the compound, how does the melting point read?
**A.** 240 to 241 °C

**Q.** Which melting point does the source give for `CCNC(=O)Nc1cc(-c2c(-c3ccc(F)c(C)c3)nc3c(C)cc(Cl)nn23)ccn1` [Example 48-1, N-{4-[6-chloro-2-(4-fluoro-3-methylphenyl)-8-methylimidazo[1,2-b]pyridazin-3-yl]-2-pyridyl}-N′-ethylurea] here?
**A.** 229 to 230 °C

**Q.** With `Cc1cc(-c2nc3cccnn3c2-c2ccnc(NC(=O)Nc3ccc(C#N)cc3)c2)ccc1F` [Example 47-5, N-(4-cyanophenyl)-N′-{4-[2-(4-fluoro-3-methylphenyl)imidazo[1,2-b]pyridazin-3-yl]pyridin-2-yl}urea] as the compound, how does the melting point read?
**A.** 204 to 206 °C

**Q.** Which melting point does the source give for `CC(=O)CNC(=O)Nc1cc(-c2c(-c3ccc(F)c(C)c3)nc3cccnn23)ccn1` [Example 63, N-{4-[2-(4-Fluoro-3-methylphenyl)imidazo[1,2-b]pyridazin-3-yl]pyridin-2-yl}-N′-(2-oxopropyl)urea] here?
**A.** 208 to 209 °C

**Q.** With `Cc1cc(-c2nc3c(C)ccnn3c2-c2ccnc(NC(=O)c3ccc(F)cc3)c2)ccc1F` [Example 41-4, N-{4-[2-(4-fluoro-3-methylphenyl)-8-methylimidazo[1,2-b]pyridazin-3-yl]-2-pyridyl}-4-fluorobenzamide] as the compound, how does the melting point read?
**A.** 243 to 244 °C

**Q.** For `Cc1cc(-c2nc3cccnn3c2-c2ccnc(NC(=O)c3ccc(Cl)cc3)c2)ccc1F` [Example Compound 21-17, 4-chloro-N-{4-[2-(4-fluoro-3-methylphenyl)imidazo[1,2-b]pyridazin-3-yl]pyridin-2-yl}benzamide], which melting point is on record?
**A.** 207 to 209 °C

**Q.** With `Cc1cccc(-c2nc3cccnn3c2-c2ccnc(NC(=O)c3cccc(F)c3)c2)c1` [Example Compound 20-4, 3-fluoro-N-{4-[2-(3-methylphenyl)imidazo[1,2-b]pyridazin-3-yl]pyridin-2-yl}benzamide] as the compound, how does the melting point read?
**A.** 204 to 205 °C

**Q.** With `CNC(=O)Nc1cc(-c2c(-c3ccc(F)c(C)c3)nc3cccnn23)ccn1` [Example 47-1, N-{4-[2-(4-fluoro-3-methylphenyl)imidazo[1,2-b]pyridazin-3-yl]pyridin-2-yl}-N′-methylurea] as the compound, how does the melting point read?
**A.** 225 to 227 °C

**Q.** Which melting point does the source give for `Cc1cc(-c2nc3cccnn3c2-c2ccnc(NC(=O)NCCCCO)c2)ccc1F.Cl` here?
**A.** 188 to 189 °C

**Q.** Which melting point does the source give for `Cc1cc(-c2nc3cccnn3c2-c2ccnc(NC(=O)c3ccc(N(C)C)cc3)c2)ccc1F` [Example 42-10, 4-(dimethylamino)-N-{4-[2-(4-fluoro-3-methylphenyl)imidazo[1,2-b]pyridazin-3-yl]pyridin-2-yl}benzamide] here?
**A.** 245 to 246 °C

**Q.** For `Cc1cccc(-c2nc3cccnn3c2-c2ccnc(N)n2)c1` [Example Compound 37-1, 4-[2-(3-methylphenyl)imidazo[1,2-b]pyridazin-3-yl]-2-pyrimidinamine], which melting point is on record?
**A.** 250 to 251 °C

**Q.** Which melting point does the source give for `Cc1cc(-c2nc3cccnn3c2-c2ccnc(NC(=O)c3ccc(Cl)cc3C)c2)ccc1F` [Example 42-15, 4-chloro-N-{4-[2-(4-fluoro-3-methylphenyl)imidazo[1,2-b]pyridazin-3-yl]pyridin-2-yl}-2-methylbenzamide] here?
**A.** 196 to 197 °C

**Q.** Which melting point does the source give for `Cc1cc(-c2nc3cc(C(C)(C)C)c(Cl)nn3c2-c2ccnc(NC(=O)c3ccc(F)cc3)c2)ccc1F` [Example 41-3, N-{4-[7-tert-butyl-6-chloro-2-(4-fluoro-3-methylphenyl)imidazo[1,2-b]pyridazin-3-yl]-2-pyridyl}-4-fluorobenzamide] here?
**A.** 181 to 182 °C

**Q.** With `COCCNc1cc(-c2c(-c3cccc(C)c3)nc3cccnn23)ccn1` [Example Compound 6-13, N-(2-methoxyethyl)-4-[2-(3-methylphenyl)imidazo[1,2-b]pyridazin-3-yl]pyridin-2-amine] as the compound, how does the melting point read?
**A.** 99 to 100 °C

**Q.** Which melting point does the source give for `CCCNC(=O)Nc1cc(-c2c(-c3ccc(F)c(C)c3)nc3cccnn23)ccn1` [Example Compound 28-4, N-{4-[2-(4-fluoro-3-methylphenyl)imidazo[1,2-b]pyridazin-3-yl]pyridin-2-yl}-N′-propylurea] here?
**A.** 231 to 232 °C

**Q.** Which melting point does the source give for `Cc1cccc(-c2nc3cccnn3c2-c2ccnc(N[C@H](C)c3ccccc3)c2)c1` [Example Compound 6-22, 4-[2-(3-methylphenyl)imidazo[1,2-b]pyridazin-3-yl]-N-[(1R)-1-phenylethyl]pyridin-2-amine] here?
**A.** 154 to 155 °C

**Q.** Which melting point does the source give for `COc1ccc(C(=O)Nc2cc(-c3c(-c4cccc(C)c4)nc4ccc(N(C)C)nn34)ccn2)cc1` [Example 45-1, N-{4-[6-(dimethylamino)-2-(3-methylphenyl)imidazo[1,2-b]pyridazin-3-yl]pyridin-2-yl}-4-methoxybenzamide] here?
**A.** 193 to 194 °C

**Q.** With `Cc1cc(NC(=O)Nc2cc(-c3c(-c4ccc(F)c(C)c4)nc4cccnn34)ccn2)[nH]n1` [Example 51-8, N-{4-[2-(4-fluoro-3-methylphenyl)imidazo[1,2-b]pyridazin-3-yl]pyridin-2-yl}-N′-(3-methyl-1H-pyrazol-5-yl)urea] as the compound, how does the melting point read?
**A.** 239 to 240 °C

**Q.** For `Cc1cccc(-c2nc3ccc(Cl)nn3c2-c2ccnc(Nc3ccc(F)cc3C)c2)c1` [Example Compound 3-1, 4-[6-chloro-2-(3-methylphenyl)imidazo[1,2-b]pyridazin-3-yl]-N-(4-fluoro-2-methylphenyl)pyridin-2-amine], which melting point is on record?
**A.** 191 to 192 °C

**Q.** For `COc1ccc(C(=O)Nc2cc(-c3c(-c4cccc(Cl)c4)nc4cccnn34)ccn2)cc1` [Example Compound 21-3, N-{4-[2-(3-chlorophenyl)imidazo[1,2-b]pyridazin-3-yl]pyridin-2-yl}-4-methoxybenzamide], which melting point is on record?
**A.** 223 to 224 °C

**Q.** With `COc1ccc2nc(-c3cccc(C)c3)c(-c3ccnc(NC4CCCCC4)c3)n2n1` [Example 9, N-Cyclohexyl-4-[6-methoxy-2-(3-methylphenyl)imidazo[1,2-b]pyridazin-3-yl]pyridin-2-amine] as the compound, how does the melting point read?
**A.** 188 to 189 °C

**Q.** For `Cc1cc(-c2nc3cccnn3c2-c2ccnc(NC(=O)c3ccnc(Cl)c3)c2)ccc1F` [Example 42-25, 2-chloro-N-{4-[2-(4-fluoro-3-methylphenyl)imidazo[1,2-b]pyridazin-3-yl]pyridin-2-yl}isonicotinamide], which melting point is on record?
**A.** 224 to 225 °C

**Q.** Which melting point does the source give for `Cc1cc(-c2nc3cccnn3c2-c2ccnc(NC(=O)Nc3ccsc3)c2)ccc1F` [Example 47-6, N-{4-[2-(4-fluoro-3-methylphenyl)imidazo[1,2-b]pyridazin-3-yl]pyridin-2-yl}-N′-3-thienylurea] here?
**A.** 234 to 235 °C

**Q.** With `Cc1cncc(C(=O)Nc2cc(-c3c(-c4ccc(F)c(C)c4)nc4cccnn34)ccn2)c1` [Example 42-30, N-{4-[2-(4-fluoro-3-methylphenyl)imidazo[1,2-b]pyridazin-3-yl]pyridin-2-yl}-5-methylnicotinamide] as the compound, how does the melting point read?
**A.** 238 to 240 °C

**Q.** With `COc1ccnn2c(-c3ccnc(N)c3)c(-c3ccc(F)c(C)c3)nc12` [Example Compound 37-4, 4-[2-(4-fluoro-3-methylphenyl)-8-methoxyimidazo[1,2-b]pyridazin-3-yl]-2-pyridylamine] as the compound, how does the melting point read?
**A.** 219 to 220 °C

**Q.** With `CCC(CC)Nc1cc(-c2c(-c3cccc(C)c3)nc3cccnn23)ccn1` [Example compound 6-20, N-(1-ethylpropyl)-4-[2-(3-methylphenyl)imidazo[1,2-b]pyridazin-3-yl]pyridin-2-amine] as the compound, how does the melting point read?
**A.** 155 to 156 °C

**Q.** For `Cc1cccc(-c2nc3ccc(Cl)nn3c2-c2ccnc(N)c2)c1` [Example 12, 4-[6-Chloro-2-(3-methylphenyl)imidazo[1,2-b]pyridazin-3-yl]pyridin-2-amine], which melting point is on record?
**A.** 247 to 248 °C

**Q.** For `Cc1cc(-c2nc3cccnn3c2-c2ccnc(NC(=O)c3ccsc3)c2)ccc1F` [Example 42-32, N-{4-[2-(4-fluoro-3-methylphenyl)imidazo[1,2-b]pyridazin-3-yl]pyridin-2-yl}thiophene-3-carboxamide], which melting point is on record?
**A.** 217 to 218 °C

**Q.** Which melting point does the source give for `Cc1ccc(C(=O)Nc2nccc(-c3c(-c4cccc(C)c4)nc4cccnn34)n2)cc1` [Example 44-1, 4-methyl-N-{4-[2-(3-methylphenyl)imidazo[1,2-b]pyridazin-3-yl]pyrimidin-2-yl}benzamide] here?
**A.** 211 to 212 °C

**Q.** For `COc1ccccc1Nc1cc(-c2c(-c3cccc(C)c3)nc3cccnn23)ccn1` [Example Compound 6-6, N-(2-methoxyphenyl)-4-[2-(3-methylphenyl)imidazo[1,2-b]pyridazin-3-yl]pyridin-2-amine], which melting point is on record?
**A.** 157 to 158 °C

**Q.** Which melting point does the source give for `Cc1cc(-c2nc3cccnn3c2-c2ccnc(NC(N)=O)c2)ccc1F` [Example 51-9, N-{4-[2-(4-fluoro-3-methylphenyl)imidazo[1,2-b]pyridazin-3-yl]pyridin-2-yl}urea] here?
**A.** 254 to 255 °C

**Q.** For `Cc1cc(-c2nc3c(C)cc(Cl)nn3c2-c2ccnc(N)c2)ccc1F` [Example Compound 36-1, 4-[6-chloro-2-(4-fluoro-3-methylphenyl)-8-methylimidazo[1,2-b]pyridazin-3-yl]-2-pyridylamine], which melting point is on record?
**A.** 218 to 219 °C

**Q.** With `COc1ccc2nc(-c3ccc(F)c(C)c3)c(-c3ccnc(NC(=O)NC(C)C)c3)n2n1` [Example 53, N-{4-[2-(4-Fluoro-3-methylphenyl)-6-methoxyimidazo[1,2-b]pyridazin-3-yl]pyridin-2-yl}-N′-isopropylurea] as the compound, how does the melting point read?
**A.** 233 to 234 °C
